{"source": "patent US6596863B2", "about": "“Medical composition containing nitroetheneamine Derivative or salt there of as active constituent” (Ishihara Sangyo Kaisha, Ltd., priority 1998, dated 2003)", "format_in_all_cases": "in vivo", "key": {"[1]": {"system": "Colon 26/AD cells (mouse colon cancer)", "procedure": "Colon 26 mouse colon cancer cells (obtained from Cancer Chemotherapy Center Foundation for Cancer Research) were transplanted subcutaneously to BALB/c mouse, 10 days later, the grown tumor was taken out. It was hashed in a Hanks equilibrium salt solution and passed through a metal mesh to obtain single cells, which were cultured in vitro (37° C., 5% CO2) (using 10% fetal bovine serum-containing Dulbecco's Modified Eagle Medium (D-5648, manufactured by Sigma Co.)). […] The same cell strain always produced and secreted MMP-2 in the supernatant of the in vitro culture, but when cultured by an addition of TNF-α (50 ng/ml) in the culture solution, it produced MMP-9 remarkably.\nWith reference to the method by Tsuruo et al (Japanese Journal of Cancer Research (Gann), Vol. 75, 193-198, 1984), the inhibition effects against experimental lung metastasis were evaluated. Namely, 3×10^4 Colon 26/AD cells (suspended in 0.2 ml of Minimum Essential Medium (manufactured by Nissui Seiyaku K. K.)) cultured in vitro were transplanted through the tail vein of a male BALB/c AnNCrj mouse (purchased from Charles River Japan, Inc.) of 6 weeks old (Day 0). In the case of Compound No. 37, it was suspended in a 1% Tween 80/physiological sodium chloride aqueous solution and intraperitoneally administered (administered in a volume of 10 ml/kg) immediately (within 5 minutes) before transplantation of the cells, 2 hours later and once per day on Day 1-4 and Day 7-11 (a total of 11 times). Further, in the case of Compound No. 157, it was dissolved in 100 mM Tris-HCl (pH 8.5)/150 mM NaCl and forcibly orally administered (administered in a volume of 10 ml/kg) by means of a metal sonde 30 minutes before transplantation of the cells, in the morning and evening of Day 1 and once per day on Day 2-4, Day 7-11 and Day 14 (a total of 12 times). To the vehicle control group, the respective solvents containing no test materials, were administered in the same manner. On Day 14 or Day 15, the lung of each mouse was taken out, and the weight was measured, and the metastatis inhibition rate was calculated in accordance with the following formula. [formula]\nA is the weight of lung of the treated group\nB is the average weight of lung of the normal group\nC is the average weight of lung of the solvent control group."}, "[2]": {"system": "Meth A/AD cells (mouse fibrosarcoma)", "design": "Tumor volume (Day 22) Average ± standard deviation / Tumor growth inhibition ratio (%) / Tumor volume (Day 24) Average ± standard deviation: dose or concentration left out as unconfirmed", "details": "for inhibition ratio of tumor growth of Meth A/AD: intraperitoneal administration, total of 10 times, male BALB/c mouse, tumor volume vs vehicle control", "procedure": "Meth A mouse fibrosarcoma cells intraperitoneally subcultured in mouse (supplied from Sasaki Institute) were cultured at 39° C. for 10 days in 5% CO2 (using 10% fetal bovine serum-containing RPMI culture medium (manufactured by Flow Laboratories)) and then inoculated subcutaneously to BALB/c mouse. The tumor grown for 30 days, was taken out and passed through a metal mesh to obtain single cells, which were again returned and continuously cultured in vitro (37° C.). […] On the other hand, the Meth A/AD strain always produces and secretes MMP-2 in the supernatant in in vitro culture, but when TNF-α (50 ng/ml) was added in the culture solution, it produced MMP-9 remarkably.\nWith reference to the method by Keneda et al (Cancer Research, Vol. 58, 290-295, 1998), the inhibitory effect on tumor growth were evaluated. Namely, 1×10^6 Meth A/AD cells cultured in vitro (suspended in 0.05 ml of a Hanks equilibrium salt solution) were intradermaly transplanted to the dosal skin of a male BALB/c AnNCrj mouse of 5 weeks old (purchased from Charles River Japan, Inc.) (Day 0). […] Compound No. 107 was suspended in a 1% Tween 80 physiological sodium chloride aqueous solution, and Compound No. 164 was dissolved in 100 mM Tris-HCl (pH 8.5)/150 mM NaCl, for administration. To the vehicle control group, the respective solvents containing no test materials were administered in the same manner. The measurement of the body weight and the observation of the general findings were carried out everyday up to Day 22 or 24, and the tumor diameters (the long diameter and the short diameter) were measured by a slide gauge every one day, and the difference in the tumor volume between the vehicle control group and the drug-treated group was evaluated. The tumor volume was calculated in accordance with the calculation formula of [(long diameter)×(short diameter)^2×½]."}, "[3]": {"system": "mouse arthritis model induced by a single immunization with collagen", "assay": "Mouse arthritis model induced by a single immunization with collagen", "procedure": "With reference to the method by Kato, F. et al (Annals of the Rheumatic Diseases, Vol. 55, 535-539, 1996), a bovine type II collagen (K-41, manufactured by collagen Gijutsu Kenkyukai) solution (3 mg/ml) dissolved in 0.05N acetic acid and Freund's complete adjuvant (Freund, Adjuvant Complete; No. F5506, manufactured by Sigma Co.) were mixed in equal amounts and subjected to ultrasonic treatment (under cooling with ice, 20 seconds×3 times) to obtain a uniform emulsion.\n0.1 ml (150 μg) of the antigen prepared as described above, was administered to the tail head skin of a female DBA/1JNCrj mouse of 5 weeks old (purchased from Charles River Japan, Inc.) (Day 0). After 2 weeks from sensitization (Day 14), Compound No. 164 (50 mg/kg) suspended in a 1% Tween 80/physiological sodium chloride aqueous solution was intraperitoneally administered (administered in a volume of 10 ml/kg) once a day continuously for 5 weeks. To the vehicle control group, the 1% Tween 80/physiological sodium chloride aqueous solution was administered in the same manner.\nSideration of arthritis was observed once a week from Day 1 in accordance with the following evaluation standards disclosed in a literature of Kato, F. et al (Annals of the Rheumatic Diseases, Vol. 55, 535-539, 1996) with respect to Knuckle joints of the respective four limbs."}}, "note": "Where two headings read alike, the source gives them in different places. Marks after values point to notes of the source that are not given here.", "data": [{"smiles": "CS(=O)(=O)NC(=C[N+](=O)[O-])NNc1cc(C(F)(F)F)cc(Cl)n1", "note": "[Compound No. 157, N-(1-(6-chloro-4-trifluoromethyl-2-pyridyl)hydrazino-2-nitroethenyl)methanesulfonamide]", "values": [{"measurement": "Metastatis inhibition ratio (%)", "setting": "[1]; 10 mg/kg × 11 times (head), oral, Day 15", "result": 59.5, "unit": "%*"}, {"measurement": "Lung weight increase (g) against normal mouse", "setting": "[1]; 10 mg/kg × 11 times (head), oral, Day 15, vehicle control 0.183 ± 0.11", "result": "0.070 ± 0.08", "unit": "g"}, {"measurement": "Weight of lung (g) (Day 15)", "setting": "[1]; 10 mg/kg × 11 times (head), oral, Day 15, vehicle control 0.364, normal mouse 0.181", "result": 0.257, "unit": "g"}, {"measurement": "inhibition ratio of experimental metastasis of Colon 26/AD to lung", "setting": "[1]; 10 mg/kg, oral administration, total of 12 times, male BALB/c mouse, from lung weight", "result": 59.5, "unit": "%"}]}, {"smiles": "CCOCCOc1cc(C(F)(F)F)cc(NNC(=C[N+](=O)[O-])NS(C)(=O)=O)n1", "note": "[Compound No. 164, N-(1-(6-(2-ethoxyethoxy)-4-trifluoromethyl-2-pyridyl)hydrazino-2-nitroethenyl)methanesulfonamide]", "values": [{"measurement": "inhibition ratio of tumor growth of Meth A/AD", "setting": "[2]; 30 mg/kg", "result": 49.8, "unit": "%"}, {"measurement": "Tumor growth inhibition ratio (%)", "setting": "[2]; intraperitoneal, Day 24", "result": "49.8* %"}, {"measurement": "Tumor volume (Day 24) Average ± standard deviation", "setting": "[2]; intraperitoneal, Day 24, vehicle control 2045 ± 987", "result": "1027 ± 907* mm^3"}, {"measurement": "sideration of arthritis compared with the control group", "setting": "[3]; 50 mg/kg intraperitoneal everyday from Day 14 for 5 weeks, female DBA/1J mouse, p<0.01, Wilcoxon ranking test", "result": "significantly delayed"}, {"measurement": "toxicity / body weight increase by observation of general findings", "setting": "[3]; 50 mg/kg intraperitoneal everyday, during the test period", "result": "no distinct toxicity or inhibition against the body weight increase"}, {"measurement": "Sideration ratio of arthritis (number of diseased animals/number of tested animals)", "setting": "[3]; Day 14 (initial of administration of drug), 50 mg/kg intraperitoneal, vehicle control 0/8", "result": "0/8"}, {"measurement": "Sideration ratio of arthritis (number of diseased animals/number of tested animals)", "setting": "[3]; Day 21, 50 mg/kg intraperitoneal once a day, vehicle control 2/8", "result": "0/8"}, {"measurement": "Sideration ratio of arthritis (number of diseased animals/number of tested animals)", "setting": "[3]; Day 28, 50 mg/kg intraperitoneal once a day, vehicle control 7/8", "result": "2/8"}, {"measurement": "Sideration ratio of arthritis (number of diseased animals/number of tested animals)", "setting": "[3]; Day 35, 50 mg/kg intraperitoneal once a day, vehicle control 8/8", "result": "6/8"}, {"measurement": "Sideration ratio of arthritis (number of diseased animals/number of tested animals)", "setting": "[3]; Day 42, 50 mg/kg intraperitoneal once a day, vehicle control 8/8", "result": "7/8"}, {"measurement": "Sideration ratio of arthritis (number of diseased animals/number of tested animals)", "setting": "[3]; Day 49, 50 mg/kg intraperitoneal once a day, vehicle control 8/8", "result": "7/8"}]}, {"smiles": "CCOCCOc1cc(C(F)(F)F)cc(NNC(=C[N+](=O)[O-])NC)n1", "note": "[Compound No. 107]", "values": [{"measurement": "inhibition ratio of tumor growth of Meth A/AD", "setting": "[2]; 100 mg/kg", "result": 63.5, "unit": "%"}, {"measurement": "Tumor growth inhibition ratio (%)", "setting": "[2]; intraperitoneal, Day 22", "result": "63.5* %"}, {"measurement": "Tumor volume (Day 22) Average ± standard deviation", "setting": "[2]; intraperitoneal, Day 22, vehicle control 1058 ± 556", "result": "386 ± 275* mm^3"}]}]}
